Reference: patent US7157468B2, “Pyrazole derivatives” (Pfizer Inc., priority 2002, dated 2007)
pIC50: −log10 of the molar value.

Biological target: T1, HIV-1 reverse transcriptase (Human immunodeficiency virus type 1 group M subtype B, UniProt P04585)
T1 construct: purified recombinant HIV-1 reverse transcriptase (RT, EC, 2.7.7.49); made in house; host or cells: Escherichia coli
Assay: Inhibition of HIV-1 Reverse Transcriptase Enzyme
Format: biochemical
Details: purified recombinant HIV-1 RT expressed in Escherichia Coli; [3H]-SPA or [3H]-flashplate enzyme assay; 5% final DMSO
Text: The activity of the compounds of the invention as reverse transcriptase inhibitors may be measured using the following assay.
Inhibition of HIV-1 Reverse Transcriptase Enzyme
Using purified recombinant HIV-1 reverse transcriptase (RT, EC, 2.7.7.49) obtained by expression in Escherichia Coli, a 96-well plate assay system is established for assaying a large number of samples using either the Poly(rA)-oligo(dT) Reverse Transcriptase [3H]-SPA enzyme assay system (Amersham NK9020) or the [3H]-flashplate enzyme assay system (NEN-SMP 103) and following the manufacturer's recommendations. The compounds are dissolved in 100% DMSO and diluted with the appropriate buffer to a 5% final DMSO concentration. The inhibitory activity is expressed in percent inhibition relative to DMSO control.

Structure (SMILES)	pIC50
Cc1n[nH]c(CC(=O)N2CCc3ccccc3C2)c1Oc1cc(Cl)cc(Cl)c1 [Example 8, 2-[4-(3,5-Dichloro-phenoxy)-5-methyl-2H-pyrazol-3-yl]-1-(3,4-dihydro-1H-isoquinolin-2-yl)-ethanone]	8.00
Cc1n[nH]c(CC(=O)N2CCc3ccccc3C2)c1Oc1cc(Cl)cc(C#N)c1 [Example 17]	7.19
